Read-outs that look alike come from different tables or passages of the source. Marks after values point to notes of the source that are not given here.

Test [1] deals with hepatic P-450 cytochrome system. Description: Hexenal sleep duration in mice. Conditions: CBF1 mice, oral 3 days, control 25.91 ± 1.57. It is filed as in vivo. As for the experimental part: Change in Hexenal sleep (HS) duration is the in vivo measurable index of hepatic P-450 cytochrome system condition.
Studies were carried out on male mice of the lines BALB/c*h75, C57B1/6, CBA, DBA/2, first generation CBF1 and BDF1 hybrides, with initial mass 18-20 g, each group including 10 mice; and on mongrel male guinea pigs with initial mass 250-300 g, each group including 24 animals. All the test compounds (from II to LII) were administered orally in drinking water and for three days at doses 50 and 500 µg/kg. Hexenal hydrochloride at a dose […] of animal mass was administered 24 hours after the last drug administration, except for line BALB/c*h75 mice, which were administered Hexenal at a dose 60 µg/kg at the same terms, and guinea pigs for which Hexenal dose was 30 µg/kg. HS duration was determined in minutes.

Test [2] concerns Lewis pulmonary carcinoma (LLC). In words: Lewis pulmonary carcinoma growth. It counts as in vivo. The note with it: mice with LLC, day 12; for Growth inhibition percent: compound in drinking water; for Tumor volume (mm^3): compound in drinking water from 24 hours after transplantation.
Protocol: Experiments were carried out on male mice with initial body mass 18-20 g. Each group included 10 animals. […] Administration of compounds II, III, IX, X, XII, XIV, XV, XVI, XVII, XIX, XXII, XLVII in drinking water was commenced 24 hours following transplantation and continued till the end of experiment. Effect of the compounds on Lewis rat pulmonary carcinoma (LLC) was estimated by day 12 of experiment by change in tumor volume expressed in mm^3.
Test [3] has as its system hydroxyl radical. In words: Hydroxyl radical formation in the Fenton reagent (chemiluminescence). It is filed as biochemical.
For test [4], the system named is superoxide anion-radical. In words: Superoxide anion-radical formation in the xantine-xantine oxidase system (chemiluminescence). It is filed as biochemical.
Protocol: Effect of the compounds of general formula (I) on change in chemiluminescence (CL) determined by hydroxyl radical ( OH) and superoxide anion-radical (O2-), in the model chemical and enzymatic systems.
5 to 10 ml of the test compounds dissolved in water were at needed concentration introduced into a cuvette. A total sample volume was 0.5 ml. • B. Superoxide anion-radical in the mixture of xantine and xantine oxidase [Afanas'ev I., Suslova T., Cheremisina Z. et al. Study of antioxidant properties of metal aspartates.
Incubation medium comprised 5 mM KH2PO4; 0.2 IU/ml xantine oxidase. Xantine at concentration 1 mM was introduced into sample through a dispencer. Luceginine (0.2 mM) was used in this system as luminiscence sensitizer.
CL signal indication was performed by its integration every 10 seconds for 5 minutes. CL flash recording duration after mixing ingredients, depended on a particular process kinetics. For each system, CL light sum (mV) was determined in the control samples without preparations (I-) and in samples comprising respective concentrations of preparations (I+). To estimate CL inhibition (activation) degree, the I+/I- ratio (in relative units) was found in the studied systems.
AOF formation and effect of the test compounds on this process were recorded on the Luminometer-1251 instrument (LKB, Sweden).
Because of such "distension" of the kinetic curve, chemiluminescence light sum was recorded during the first 3-5 minutes which reflected a total amount of light quantums produced in the system till achieving the maximum CL intensity values.
Test [5] concerns Strain Aichi of type A human influenza virus. It is filed as in vivo.
The test system of test [6] is mongrel male rats. In words: Hypolipidemic activity: experimental hyperlipidemia (atherogenic load).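 On all read-outs here: serum drawn 18 h after the final dose from rats deprived of food over that interval, groups of 10 animals.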 Conditions: atherogenic diet, oral last four days; for Kcs: cholesterol index.
Protocol: Hypolipidemic activity of the compounds of general formula (I) was studied on the model of experimental hyperlipidemia [Arichi H., Kumura H.O. Effects of stibens compounds of roots of polygonum cuspidatium on the lipid metabolism. […] Each group of animals included 10 rats. […] Blood samples were taken for analysis 18 hours after the last administration of the test substances during which period food was taken away from rats.
The following parameters were determined: total cholesterol (total CS); high density lipoprotein cholesterol (HDL-CS); low density lipoprotein cholesterol and very low density lipoprotein cholesterol (LDL-CS and VLDL-CS); triglycerides (TG). Blood serum CS level was determined according to the Ilk method [Biochemical examination in the clinic. […] HDL-CS level was measured in supernatant following heparine-manganese precipitation of LDL+VLDL [Titov V.N., Brener E.D., Khaltaiev N.G., Zadoya A.A., Tvorogova M.G. A method and diagnostic significance of cholesterol level study in α-lipoproteins. […] LDL-CS level determination was carried out by calculation according to the formula presented in the work Friedwald W.T. [Friedwald W.T., Levy K.J., Leus R. Fat transport in lipoproteins: an integrated approach to mechanism and disorders.
To assess the effect of the test compounds on the ratio of atherogenic and antiatherogenic blood serum lipoproteins, cholesterol index (Kcs) was calculated according to the formula presented in the work [Klimov A.N., Nikulcheva N.G. Lipoproteins, dylipoproteinemias and atherosclerosis.
Blood serum TG level was determined using the conventional method [Friedwald W.T., Levy R.I., Fredrickson D.S. Estimation of concentration of low-density lipoprotein cholesterol in plasma, without use of preparative ultracentrifuge.
The test system of test [7] is mongrel female rats. Description: Hepatoprotective activity: subchronic liver lesion (hepatitis) with CCl4. The note with it: rats, CCl4 hepatitis. It counts as in vivo. The method, then: Hepatoprotective properties of the compounds were studied on a model of subchronic liver lesion (hepatitis) with carbon quadrichloride.
70 mongrel female rats with initial body mass 190-200 g fed a standard vivarium ration, were used in experiment. Animals were divided into 7 groups (10 rats each): • Group 1 - control one; during the first four days of experiment animals were subcutaneously injected 0.2 ml vaseline oil; • Group 2 - during the first four days animals were subcutaneously injected 50% CCl4 solution in vaseline oil at a rate of 0.1 ml per 100 g body mass; • Group 3 - Legalon in a starch gel was administered orally for 8 days at a dose 30 mg/kg against the background of CCl4 administration; […] , resepectively, was administered in a way similar to group III; […] , resepectively, was administered in a way similar to group III.
The test compounds and Legalon were administered to animals 1 hour prior to CCl4 administration. 24 hours after the last administration of the drugs, animals were decapitated.
Activity of blood serum transaminases ALT and AST was assessed using the conventional Frenkel-Rightman method [Laboratory examination methods in the clinic. Ed. by Menshikov V.V. Moscow, Meditsina publishers (1969), 302 pp.].
The published method [Rodionova L.P. Modification of blood serum trigyceride level determination method. Laboratomoye delo (Laboratory Matter) (1980), No 5, pp. 297-299] was used to determine blood serum TG level.
Blood serum LP final product MDA was determined using the published method [Korobeinikova E.N. Modification of lipid peroxydation product determination in reaction with thiobarbituric acid. Laboratomoye delo (Laboratory Matter) (1989), No 7, pp. 8-10]. Concentration of TBA-active products was calculated using regression equation: C = 0.21 + 0.26D, [formula] where C - concentration of TBA-active products (in nM MDA per 1 ml of serum), D - index D535 -D580 (in optic density units).
Total hepatic lipids were extracted using the modified Folch method [Cates M. Technology of Lipidology. Moscow, Mir publishers (1975), pp. 74-76]. Quantative content of lipid fractions was assessed with thin layer chromatography method (TLC) using the system of solvents hexane:diethyl ether:acetic acid at ratio 80:20:2. Zones of individual lipid fractions were determined using 10% alcohol solution of phosphoromolyobdenic acid which following elution were spectrophotometrically analysed at 600 nm.
Hepatic MDA level was determined using the published method [Stalnaya I.D., Garishvili T.G. Malonic dialdehyde determination method using thiobarbituric acid. In: Modem methods in biochemistry. Moscow, Meditsina publishers (1977), pp. 66-69]. MDA quantity was calculated using molar extinction coefficient value of stained trimethynic complex formed by MDA with two TBA molecules: E = 1.56 × 10^5 (cm)^-1 × M^-1 [formula]

The mark [8] stands for this setting: 0.01 mM, control of the series as in the table.
Setting [9] is: 0.1 mM, control of the series as in the table.
The mark [10] stands for this setting: 1 mM, control of the series 7839 ± 171, 1120 ± 163, 4974 ± 283 or 1332 ± 172.
The mark [11] stands for this setting: series with Control - 2 (9.1), […].
Setting [12] is: series with Control - 2 (34.5), 50 µg/kg orally.
Where [13] appears, read: series with Control - 2 (34.5), 500 µg/kg orally.
Setting [14] is: series with Control - 2, 50 µg/kg orally.
[15] abbreviates: series with Control - 2, 500 µg/kg orally.
Setting [16] is: blood serum, oral 8 days 30 mg/kg.
Setting [17] is: blood serum, oral 8 days, daily dose 30.0 mg/kg.

Consider `Cl.O=C(O)CCCCC(=O)NCCc1c[nH]cn1` [IV, N-ADIPINYLHISTAMINE CHLOROHYDRATE], for which the “Hexenal sleep duration (minutes)” value in test [1] (50 µg/kg) is listed as 20.39 ± 1.59* minutes.
In the case of `O=C(O)CCCC(=O)NCCc1c[nH]c2ccc(OCc3ccccc3)cc12` [XIV, N-GLUTARYL-O-BENZYLSEROTONIN], in test [2], the Growth inhibition percent is 68% and the “Tumor volume (mm^3)” value is 779 ± 94** mm^3.
Consider `O=C1CC[C@@H](C(=O)NCCc2c[nH]cn2)N1` [LII, Pyroglutamylhistamine], for which the “Hexenal sleep duration” value in test [1] (50 µg/kg) came to 21.14 ± 1.39 min.
With `O=C(O)CCCC(=O)NCCc1ccccn1` [compound XX, N-GLUTARYL-2-(2-AMINOETHYL)PYRIDINE], the “relative effect: I+/I-” value was 0.85 in test [3] (0.01 mM), 0.81 in test [3] (0.1 mM) and 0.11 in test [3] (1 mM). For the same compound, the “Chemiluminiscence intensity (mV) + σn-1” value in test [3] (setting [8]) is 4205 ± 234 mV; in test [3] (setting [9]), 4018 ± 201 mV; in test [3] (setting [10]) it was 536 ± 124 mV. For the same compound, the Growth inhibition percent in test [2] is listed as 16%. In addition, the “Tumor volume (mm^3)” value in test [2] is listed as 1148 ± 112 mm^3.
In the case of `O=C(O)CCCC(=O)NCCc1ccccc1` [XXI], the “relative effect: I+/I-” value came out at 0.81 in test [3] (0.01 mM), 0.66 in test [3] (0.1 mM) and 0.05 in test [3] (1 mM). The “Chemiluminiscence intensity (mV) + σn-1” value in test [3] (setting [8]) was 4036 ± 186 mV; in test [3] (setting [9]), 3265 ± 184 mV; in test [3] (setting [10]) it was 228 ± 72 mV; in test [4] (setting [9]), 6460 ± 166 mV; in test [4] (1 mM, control of the series 5616 ± 173, 5391 ± 195, 7290 ± 128 or 6776 ± 150), 4232 ± 146 mV. The “relative effect: 1+/I-” value is 0.89 in test [4] (0.1 mM) and 0.58 in test [4] (1 mM). This compound registered a Growth inhibition percent in test [2] of 25%. Besides, the “Tumor volume (mm^3)” value in test [2] came to 1023 ± 207 mm^3.
`NCCCC(=O)NCCc1c[nH]cn1` [compound XLVII, γ-Aminobutyrylhistamine]: in test [5] (setting [11]), the “MLT” value is 10.0 days and the “MLT, days” value is reported as 13.0*^2 days. The “Survival rate in percent” value in test [5] (setting [12]) is on record as 83.3*^2%. In addition, the “Survival rate in percent” value in test [5] (setting [13]) is given as 79.3*^2%. Further, in test [5] (setting [14]), the “Protection degree in percent” value is reported as 48.8%. Moreover, the “Protection degree in percent” value in test [5] (setting [15]) is on record as 44.8%. Further, in test [6] (blood, 50 µg/kg), the HDL-CS is reported as 44,1±1,9**^A, the “LDL-CS+ VLDL-CS” value was 42,4±1,7***^A and the “Total CS” value is on record as 86,5±3,9*^A. In test [6] (blood, 500 µg/kg), the HDL-CS is recorded as 40,8±4,8, the “LDL-CS+ VLDL-CS” value is on record as 50,8±3,6**^A, the “Total CS” value is recorded as 90,0±2,4 and the Triglycerides was 116,7±10,8*^A. In addition, the Kcs in test [6] (50 µg/kg) was 0,96±0,04***^A. Besides, the Kcs in test [6] (500 µg/kg) is 1,27±0,09. Further, in test [2], the Growth inhibition percent was 45% and the “Tumor volume (mm^3)” value is on record as 826 ± 119* mm^3.
`O=C(O)CCCC(=O)NCCc1c[nH]c2ccc(O)cc12` [compound XV, N-GLUTARYLSEROTONIN]: in test [2], the Growth inhibition percent came out at 63% and the “Tumor volume (mm^3)” value is recorded as 889 ± 67** mm^3.
Consider `CCCCCCCNC(=O)Cc1c[nH]cn1` [XXXIII, N-(IMIDAZOLYL-4-ACETHYL)-HEPTHYLAMINE], for which the “Survival rate in percent” value is given as 63.3% in test [5] (setting [12]) and 76.6*^2% in test [5] (setting [13]). In addition, the “Protection degree in percent” value in test [5] (setting [14]) stood at 28.8%; in test [5] (setting [15]), 76.6%. Also, in test [1] (500 µg/kg), the “Hexenal sleep duration (minutes)” value was 19.82 ± 2.12* minutes.
With `CCOC(=O)c1c(CSc2ccccc2)n(C)c2cc(Br)c(O)c(CN(C)C)c12` [Arbidol], the “MLT, days” value in test [5] (series with Control - 2 (9.1), 100 mg/kg, 24 and 2 hours prior and 3 days post infection) is given as 13.88*^2 days; in test [5] (series with control - 1 (5.76), 100 mg/kg, 24 and 2 hours prior and 3 days post infection), 9.22* days. In addition, the “Survival rate in percent” value in test [5] (series with Control - 2 (34.5), 100 mg/kg, 24 and 2 hours prior and 3 days post infection) is on record as 94.7*^2%; in test [5] (series with control - 1 (16.7), 100 mg/kg, 24 and 2 hours prior and 3 days post infection), 43.4* percent. In addition, the “Protection degree in percent” value amounted to 60.2% in test [5] (series with Control - 2, 100 mg/kg, 24 and 2 hours prior and 3 days post infection); 26.7% in test [5] (series with control - 1, 100 mg/kg, 24 and 2 hours prior and 3 days post infection).
Turning to `COc1cc(C2Oc3cc([C@H]4Oc5cc(O)cc(O)c5C(=O)[C@@H]4O)ccc3OC2CO)ccc1O` (some centres unmarked) [Legalon, reference compound], the “Cholesterol level, mg/100 ml VLDL-CS” value in test [7] (blood serum, TG/5, oral 8 days 30 mg/kg) is 15.7 ± 1.1 p<0.05 mg/100 ml. Also, in test [7] (blood serum, calculated by formula, oral 8 days 30 mg/kg), the “Cholesterol level, mg/100 ml LDL-CS” value was 20.1 ± 1.1 p<0.01 mg/100 ml. Besides, in test [7] (setting [16]), the “Cholesterol level, mg/100 ml HDL-CS” value is listed as 54.8 ± 2.5 mg/100 ml; the “Cholesterol level, mg/100 ml total-CS” value is given as 90.9 ± 3.4 mg/100 ml; the “TG level, mg/100ml” value came out at 78.0 ± 6.2 p<0.05 mg/100ml. In addition, in test [7] (setting [17]), the “ALT, nM/dl” value is reported as 622 ± 36 nM/dl and the “AST, nM/dl” value turned out to be 531 ± 22 nM/dl. Further, in test [7] (liver, oral 8 days 30 mg/kg), the “Lipid composition (in percent of total lipids) FCS” value is 15.0 ± 0.4 p<0.01% of total lipids, the “Lipid composition (in percent of total lipids) Phospholipids” value is reported as 19.7 ± 1.1% of total lipids and the “Lipid composition (in percent of total lipids) Triglycerides” value is given as 44.1 ± 1.9% of total lipids. Moreover, in test [7] (30.0 mg/kg), the “Hepatic MDA, nM/l” value was found to be 4.17 ± 0.31 p<0.001 nM/l and the “Serum MDA, nM/l” value is listed as 5.58 ± 0.15 nM/l.
On to `O=C(O)CCCC(=O)NCCN1CCOCC1` [XIX, N-GLUTARYL-4-(2-AMINOETHYL)MORPHOLINE], for which the “Chemiluminiscence intensity (mV) + σn-1” value in test [3] (1 µM, control of the series as in the table) was 49089 ± 269 mV; in test [3] (setting [8]), 3846 ± 184 mV; in test [3] (setting [9]) it was 3377 ± 222 mV; in test [3] (setting [10]), 626 ± 56 mV. Also, the results for the “relative effect: I+/I-” value in test [3] (0.01 mM), in test [3] (0.1 mM) and in test [3] (1 mM) were 0.77, 0.68 and 0.13, respectively. The compound further registered a Growth inhibition percent in test [2] of 28%. In addition, in test [2], the “Tumor volume (mm^3)” value is on record as 994 ± 173 mm^3.
Turning to `COc1ccc2[nH]cc(CCNC(=O)CCCC(=O)O)c2c1` [compound XVI, N-GLUTARYL-5-O-METHYLSEROTONIN], in test [2], the Growth inhibition percent is recorded as 56% and the “Tumor volume (mm^3)” value was 1076 ± 69** mm^3.

Values taken from patent EP2229935A1, “Peptide derivatives or pharmaceutically acceptable salts thereof, method for producing the same, use of said derivatives and pharmaceutical composition” (Nebolsin, Vladimir Evgenievich, priority 1997, dated 1999).
